Consider 8 compounds from patent US8030298B2, “17β-HSD1 and STS inhibitors” (Abbott Products GmbH, priority 2005, dated 2011).

This test addresses T1, recombinant human 17β-hydroxysteroid dehydrogenase type 1 (Homo sapiens, UniProt P14061).
T1 construct: made in house; host or cells: Sf9 insect cells (baculovirus, Bac to Bac Expression System)
T1 sequence (P14061 1-328): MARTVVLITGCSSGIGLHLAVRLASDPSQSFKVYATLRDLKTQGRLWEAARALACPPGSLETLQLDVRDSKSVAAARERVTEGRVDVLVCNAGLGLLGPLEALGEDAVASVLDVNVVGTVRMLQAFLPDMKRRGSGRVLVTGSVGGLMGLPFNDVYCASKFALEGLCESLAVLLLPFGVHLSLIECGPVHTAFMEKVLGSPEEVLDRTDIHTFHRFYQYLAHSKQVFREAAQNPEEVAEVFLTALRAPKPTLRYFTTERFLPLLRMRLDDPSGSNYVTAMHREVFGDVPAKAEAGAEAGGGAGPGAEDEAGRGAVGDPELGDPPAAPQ
As to the kind of experiment: Inhibition of recombinant human 17β-hydroxysteroid dehydrogenase type 1 (3H-estrone to estradiol conversion, HPLC). It is filed as biochemical. The note with it: read-out: Inhibition of rec. 17β-HSD1 (% inhibition); for inhibition at 1 µM: 0.5 h, inhibitor concentration 1 μm; for inhibition at 0.1 µM: inhibitor concentration 100 nM. The method, then:
17β-HSD1 purification: Recombinant baculovirus was generated by the “Bac to Bac Expression System” (Invitrogen). Recombinant bacmid was transfected to Sf9 insect cells using “Cellfectin Reagent” (Invitrogen). 60 h later cells were harvested; the microsomal fraction was isolated as described by Puranen et al. (1994). Aliquots were stored frozen until determination of enzymatic activity.
Assay—Inhibition of recombinant human 17β-hydroxysteroid dehydrogenase type 1: Recombinant protein (0.1 μg/ml) was incubated in 20 mM KH2PO4 pH 7.4 with 30 nM 3H-estrone and 1 mM NADPH for 30 min at RT, in the presence of potential inhibitors at concentrations of 1 μM or 0.1 μM. Inhibitor stock solutions were prepared in DMSO. Final concentration of DMSO was adjusted to 1% in all samples. The enzyme reaction was stopped by addition of 10% trichloroacetic acid (final concentration). Samples were centrifuged in a microtiter plate at 4000 rpm for 10 min. Supernatants were applied to reverse phase HPLC on a Waters Symmetry C18 column, equipped with a Waters Sentry Guard column. Isocratic HPLC runs were performed at RT at a flow rate of 1 ml/min of acetonitrile:water 48:52 as running solvent. Radioactivity was monitored in the eluate by a Packard Flow Scintillation Analyzer. Total radioactivity for estrone and estradiol were determined in each sample and percent conversion of estrone to estradiol was calculated according to the following formula:
Percent inhibition was calculated as follows: % inhibition=100−% conversion

Consider `CCOc1cc2c(cc1O)CC[C@H]1[C@@H]3[C@@H](CCCC(=O)N4CCCCC4)CC(=O)[C@@]3(C)CC[C@H]21` [Compound 55], for which the inhibition at 1 µM turned out to be 71.9% and the inhibition at 0.1 µM turned out to be 42.6%.
As for `C[C@]12CC[C@@H]3c4ccc(OS(=O)(=O)O)cc4CC[C@H]3[C@@H]1[C@H](CCCC(=O)N1CCOCC1)CC2=O` [Example 164, 3-Sulphate-15β-(4-morpholin-4-yl-4-oxo-butyl)-estra-1,3,5(10)-trien-17-one], the inhibition at 1 µM stood at 27% and the inhibition at 0.1 µM was determined as 3%.
Turning to `COCCc1cc2c(cc1O)CC[C@H]1[C@@H]3[C@H](CCCC(=O)NCc4ccccc4)CC(=O)[C@@]3(C)CC[C@H]21` [Example 3, N-Benzyl-4-(3-hydroxy-2-(2-methoxy-ethyl)-17-oxo-estra-1,3,5(10)-trien-15β-yl)-butyramide], the inhibition at 0.1 µM came out at 19.6%.
Same read-out and setting: the same measure for `COc1ccc(CCN(C)C(=O)CCC[C@H]2CC(F)(F)[C@@]3(C)CC[C@@H]4c5ccc(O)cc5CC[C@H]4[C@H]23)cc1OC` [Compound 116]: 49.3%.
With `C[C@]12CC[C@@H]3c4ccc(O)cc4CC[C@H]3[C@@H]1[C@H](CCCC(=O)N1CCOCC1)c1cn[nH]c12` [Example 162, 3-Hydroxy-15β-(4-morpholin-4-yl-4-oxo-butyl)-estra-1,3,5(10)-trien-[16,17-c]-pyrazole], the inhibition at 1 µM was 93% and the inhibition at 0.1 µM was found to be 63%.
Take `COc1ccc(CCN(C)C(=O)CC[C@@H]2CC(F)(F)[C@@]3(C)CC[C@@H]4c5ccc(O)cc5CC[C@H]4[C@H]23)cc1OC` [Compound 134]: the inhibition at 0.1 µM came to 50.5%.
Take `C[C@]12CC[C@@H]3c4ccc(O)cc4CC[C@H]3[C@@H]1[C@H](CCC(=O)NC1CCCCC1)CC2(F)F` [Compound 121]: the inhibition at 0.1 µM stood at 63.6%.
Consider `CCCc1cc2c(cc1O)CC[C@H]1[C@@H]3[C@H](CCCC(=O)NCCOC)CC(=O)[C@@]3(C)CC[C@H]21` [Compound 41], for which the inhibition at 0.1 µM is 25.9%.

The term inhibition denotes the change of the read-out against control, counted positive when it falls.
